pIC50: −log10 of the molar value. Structures can show the parent of a compound that is named as a salt.
Experiments:
Type in all cases: functional, cell-based
HL-60 = assay: Cytotoxicity against human HL-60 cells assessed as inhibition of cell growth by CCK-8 assay
MIA PaCa-2 = assay: Cytotoxicity against human MIA PaCa-2 cells assessed as inhibition of cell growth by CCK-8 assay
A549 = assay: Cytotoxicity against human A549 cells assessed as inhibition of cell growth by CCK-8 assay
YAPC = assay: Cytotoxicity against human YAPC cells assessed as inhibition of cell growth by CCK-8 assay
SU.86.86 = assay: Cytotoxicity against human SU-86-86 cells assessed as inhibition of cell growth by CCK-8 assay

SMILES	pIC50 (HL-60)	pIC50 (MIA PaCa-2)	pIC50 (A549)	pIC50 (YAPC)	pIC50 (SU.86.86)
C/C(=C\[C@@H]1OC(=O)[C@](O)([C@@H]2CC[C@]34C[C@]23C=C[C@@H]2[C@@]3(C)CC=C(/C=C/c5ccccc5)C(C)(C)[C@@H]3C[C@@H](O)[C@]24C)[C@H]1O)CO	6.00	6.02	5.42		
C/C(=C\[C@@H]1C[C@@](O)([C@@H]2CC[C@]34C[C@]23C=C[C@@H]2[C@@]3(C)CC=C(/C=C/c5ccccc5)C(C)(C)[C@@H]3CC(=O)[C@]24C)C(=O)O1)CO	5.77	6.11	5.66		
COc1ccc([C@@H]2C=C3[C@H](C[C@]4(C)[C@H]5C=C[C@]67C[C@]6(CC[C@H]7[C@H]6CO[C@@H](/C=C(\C)CO)[C@@H]6O)[C@]5(C)[C@H](O)C[C@H]4C3(C)C)OO2)cc1	< 5.00		< 5.00		
C/C(=C\[C@H]1C[C@@](O)([C@@H]2CC[C@]34C[C@]23CC[C@@H]2[C@@]3(C)Cc5oc(-c6ccccc6)cc5C(C)(C)[C@@H]3C[C@H](O)[C@]24C)C(=O)O1)CO	< 5.00		< 5.00		
C/C(=C\[C@H]1C[C@@H]([C@@H]2CC[C@]34C[C@]23C=C[C@@H]2[C@@]3(C)CC=C(/C=C/c5ccccc5)C(C)(C)[C@@H]3C[C@@H](O)[C@]24C)C(=O)O1)CO	6.46	6.17	5.55	5.17	5.80
C/C(=C\[C@H]1C[C@@](O)([C@@H]2CC[C@]34C[C@]23C=C[C@@H]2[C@@]3(C)CC=C(/C=C\c5ccccc5)C(C)(C)[C@@H]3CC(=O)[C@]24C)C(=O)O1)CO	5.89	5.55	5.43		
C/C(=C\[C@@H]1OC(=O)[C@H]([C@@H]2CC[C@]34C[C@]23C=C[C@@H]2[C@@]3(C)CC(=O)/C(=C\C(=O)c5ccccc5)C(C)(C)[C@@H]3C[C@H](O)[C@]24C)[C@H]1O)CO	< 5.00		< 5.00		
C/C(=C\[C@@H]1OC(=O)[C@H]([C@@H]2CC[C@]34C[C@]23C=C[C@@H]2[C@@]3(C)CC=C(/C=C/c5ccccc5)C(C)(C)[C@@H]3C[C@H](O)[C@]24C)[C@H]1O)CO	6.55	6.03	5.74		
COc1ccc([C@H]2C=C3[C@@H](C[C@]4(C)[C@H]5C=C[C@]67C[C@]6(CC[C@H]7[C@H]6CO[C@@H](/C=C(\C)CO)[C@@H]6O)[C@]5(C)[C@H](O)C[C@H]4C3(C)C)OO2)cc1	< 5.00		< 5.00		
C/C(=C\[C@H]1C[C@@](O)([C@@H]2CC[C@]34C[C@]23C=C[C@@H]2[C@@]3(C)CC(=O)/C(=C\C(=O)c5ccccc5)C(C)(C)[C@@H]3C[C@@H](O)[C@]24C)C(=O)O1)CO	< 5.00		5.03		
COc1ccc(C(=O)[C@@H]2O[C@]23C(=O)C[C@]2(C)[C@H]4C=C[C@]56C[C@]5(CC[C@H]6[C@H]5C(=O)O[C@@H](/C=C(\C)CO)[C@@H]5O)[C@]4(C)[C@H](O)C[C@H]2C3(C)C)cc1	< 5.00		< 5.00		
CC(=O)O[C@@]1(C)CO[C@@]2(C1)OC(=O)[C@H]([C@@H]1CC[C@]34C[C@]13C=C[C@@H]1[C@@]3(C)CC=C5C[C@@H](c6ccccc6)OC[C@]5(C)[C@@H]3C[C@H](O)[C@]14C)[C@H]2O	< 5.00		5.48		
C/C(=C\[C@@H]1OC(=O)[C@H]([C@@H]2CC[C@]34C[C@]23C=C[C@@H]2[C@@]3(C)CC=C(/C=C\c5ccccc5)C(C)(C)[C@@H]3C[C@@H](O)[C@]24C)[C@H]1O)CO	5.48	< 5.00	5.04		
C/C(=C\[C@H]1C[C@@](O)([C@@H]2CC[C@]34C[C@]23C=C[C@@H]2[C@@]3(C)CC=C5C[C@@H](c6ccccc6)OC[C@]5(C)[C@@H]3C[C@@H](O)[C@]24C)C(=O)O1)CO	< 5.00		5.96		
COc1ccc(/C=C/C2=CC[C@]3(C)[C@H]4C=C[C@]56C[C@]5(CC[C@H]6[C@H]5C(=O)O[C@@H](/C=C(\C)CO)[C@@H]5O)[C@]4(C)[C@H](O)C[C@H]3C2(C)C)cc1	6.44	6.41	5.92	< 5.00	5.77
COc1cccc2c1C(=O)c1c(O)c3c(c(O)c1C2=O)C[C@@](O)(C(=O)CO)C[C@@H]3O[C@H]1C[C@H](N)[C@H](O)[C@H](C)O1 [DOXORUBICIN HYDROCHLORIDE]		6.60		6.51	6.48
